Measured values: patent US12329827B2, “Devices, compositions and related methods for accelerating and enhancing bone repair” (THE REGENTS OF THE UNIVERSITY OF MICHIGAN, priority 2015, dated 2025)

What was measured:
[1] = tested on: irradiated mandibular fractures; assay: Irradiated mandibular fracture, implanted nano-DFO vs standard DFO (Example V); format: in vivo, Rats; details: radiated fracture, 40-day healing
Protocol: Rats (n=44) were divided into 4 groups. Fracture, radiated fracture, radiated fracture with standard DFO and radiated fracture with nano-DFO. Radiated groups received radiotherapy 2 weeks prior to mandibular osteotomy. The nano-DFO group received implantation of the drug at the time of surgery. Following a 40-day healing period, mandibles were assessed for bony-union, imaged with μCT, and mechanically tested to failure. ANOVA was used for comparison and (p<0.05).

[2] = tested on: human umbilical vein endothelial (HUVEC) cells exposed to radiation; assay: Tubule formation of irradiated HUVEC cells in Matrigel (Example III); format: cell-based
Protocol: The effect of DFO on endothelial cells exposed to radiation in vitro was investigated. […] Four groups of human umbilical vein endothelial (HUVEC) cells (control, radiated, radiated+low dose DFO, or radiated+high dose DFO) were incubated in Matrigel and video recorded in real-time over 12 hours. DFO groups received either 25 or 50 μM doses at the time of incubation. Tubule formation was photographed at 100× magnification every four hours. Tubule numbers between groups were compared using ANOVA with p≤0.05 considered statistically significant. A severe diminution in endothelial tubule formation after radiotherapy was observed. Specifically, tubule formation was diminished 30%, 34%, and 27% respectively, compared to control values (p=0.01, at 4, 8, and 12 hours). The effects of radiation were strikingly remediated by treatment with high-dose DFO. […] These findings were clearly observed with real-time recording. […] This evidence supports the contention that DFO strongly remediates the effects of radiation on endothelial tubule formation (see, e.g., Donneys, Alexis, et al., Plastic and Reconstructive Surgery 131.5S (2013): 141).

[3] = tested on: murine mandibular DO model; assay: Mandibular distraction osteogenesis model, DFO injections into the regenerate gap (Example I); format: in vivo, Sprague-Dawley rats
Excerpt: The effectiveness of DFO in enhancing regenerate vascularity at a full consolidation period (28 days) in a murine mandibular DO model was established. To investigate whether this augmentation in vascularity would function to accelerate consolidation without compromising regenerate quality or strength, consolidation periods prior to μCT imaging and biomechanical testing (BMT) were progressively shortened. Three time points (14 d, 21 d and 28 d) were selected and six groups of Sprague-Dawley rats (n=60) were equally divided into control (C) and experimental (E) groups for each time period. Each group underwent external fixator placement, mandibular osteotomy, and a 5.1 mm distraction. During distraction, the experimental groups were treated with DFO injections into the regenerate gap. After consolidation, mandibles were imaged and tension tested to failure. ANOVA was conducted between groups, and p<0.05 was considered statistically significant. […] The benefit of treatment was further substantiated by a striking 100% increase in the number of clinically appreciated bony unions at this early time-period (C:4/10 vs. E:8/10, FIG. 2) (see, e.g., Donneys, Alexis, et al., Bone 55.2 (2013): 384-390).

[4] = tested on: irradiated mandible fracture; assay: Fracture healing in the irradiated mandible, DFO injected into callus site (Example II); format: in vivo, rats
Excerpt: The effects of radiation on bone formation and healing are mediated through the mechanisms of vascular damage, direct cellular depletion and diminished function of osteocytes. Over time, this accumulated damage predisposes patients to the debilitating problem of late pathologic fractures and non-unions. Here, the use of DFO was employed to bolster the vascular response during bone healing in this setting. It was posited that the untoward effects of radiotherapy on vascular density and osteocyte count and ultimately the mineralization and biomechanical strength of our bone would be improved with the addition of DFO. 12 rats received fractionated radiotherapy to left hemi-mandibles. After recovery, fracture repair ensued with external fixator placement and mandibular osteotomy. DFO was injected into the callus site every other day from post-operative days 4-12. A 40-day healing period was allowed prior to vessel perfusion, PCT, BMT, and histologic processing. Mandibles were dissected and gross union was assessed. Union was defined as bony bridging and the absence of motion across the fracture site. Outcome data was analyzed with ANOVA, and p≤0.05 was statistically significant. The DFO group was compared with two other groups: fracture-Fx and radiated fracture-XFx (n=12, 12).

Question: What does the source list for `CC(=O)N(O)CCCCCNC(=O)CCC(=O)N(O)CCCCCNC(=O)CCC(=O)N(O)CCCCCN` [DFO, N′-{5-[Acetyl(hydroxy)amino]pentyl}-N-[5-({4-[(5-aminopentyl)(hydroxy)amino]-4-oxobutanoyl}amino)pentyl]-N-hydroxysuccinamide]?
Answer: Bony Unions [1]: 67%; radiation-induced decreases in all metrics [1]: remediated; tubule formation vs radiated cells ([2]; high dose DFO (50 μM), 4, 8 and 12 hours, p=0.02): significantly increased; tubule formation vs normal (control) levels ([2]; high dose DFO (50 μM), each time point): reached or exceeded normal levels; time of incubation to organization of cultures ([2]; high-dose DFO (50 μM), real-time recording): ≤ 2 h; Bone Mineral Density (BMD) vs non-treated controls ([3]; 14 days of consolidation): significant increases; Bone Volume Fraction (BVF) vs non-treated controls ([3]; 14 days of consolidation): significant increases; Ultimate Load (UL) vs non-treated controls ([3]; 14 days of consolidation): significant increases; increase in the number of bony unions vs non-treated controls ([3]; 14 days of consolidation): 100%; number of clinically appreciated bony unions ([3]; 14 days of consolidation, unions/animals): 8/10; BVF, BMD, Yield and UL at 14 days vs fully consolidated 28 d control group ([3]; 14 days with treatment): comparable; bony union rate ([3]; 28 days): 100%; BMT and mineralization metrics vs Fx group ([4]; 40-day healing): no difference; BMT and mineralization metrics vs XFx group ([4]; 40-day healing): significant increase; Vessel Number, Thickness and Separation ([4]; 40-day healing): significant restorative effects; increase in bony unions vs XFx ([4]; 40-day healing): 42%; Vessel Volume vs XFx ([4]; 40-day healing, p=0.029): significant restoration to control level; bony union ([4]; 40-day healing, Fx 100%, XFx 25%): 67%; empty lacunae vs XFx ([4]; histomorphometry, p=0.000): decrease; osteocyte count vs XFx ([4]; histomorphometry, p=0.000): significant restoration to control level
